According to PMC8505397, “Development of peptides targeting receptor binding site of the envelope glycoprotein to contain the West Nile virus infection” (Scientific Reports, 2021):
Several values for one entry are separate records, joined by “and”; a condition that tells them apart may be missing. Equal values may be shown once. Read-outs that look alike come from different tables or passages of the source.

Tests used:
[1] = biological target: T1, interaction between rDIII and ~ 15 kDa receptor of hBMECs (West Nile virus, UniProt P06935); assay: Blocking of interaction between rDIII and proteins of hBMECs by peptides (Western blot); format: binding, West Nile virus / human; details: 2.5 µg (0.19 nM) rDIII pre-incubated with tenfold molar excess (1.9 nM) of peptide
T1 construct: rDIII – recombinant domain III; made in house; host or cells: E. coli M15
T1 sequence (P06935 584-692 limits assumed): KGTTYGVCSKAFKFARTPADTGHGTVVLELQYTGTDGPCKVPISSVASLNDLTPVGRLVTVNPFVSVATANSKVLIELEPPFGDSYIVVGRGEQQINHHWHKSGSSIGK
Experimental: First, concentration-dependent ELISA and Western blot were performed to get the minimum concentration of rDIII required to show its interaction with hBMECs proteins. Details are presented in Supplementary Method S12 and Supplementary Method S13. Subsequently, the ability of 7-mer and 12-mer peptides to block the interaction between rDIII and proteins of hBMECs was tested. A tenfold molar excess of peptides was incubated with rDIII for 1 h at room temperature. Such pre-incubated rDIII was subsequently used in the assays. Details of both methods are described in Supplementary Method S12 and Supplementary Method S13. […]
Blocking of interaction between rDIII and proteins of hBMECs by peptides (Western blot).
Two hundred micrograms of proteins extracted from hBMECs were separated on 2-well PAGE […]
gel (12% polyacrylamide gel) and transferred on 0.45 μm nitrocellulose membrane (Amersham Protran; GE Healthcare) for 1 h at 30 V. Details of LDS-PAGE are described in Supplementary Methods S7. The membrane was cut horizontally to obtain proteins of molecular weight between ~10 kDa to ~25 kDa. Subsequently, this membrane was sliced vertically to obtain 0.3 cm strips, which were then used in Western blot (Supplementary Fig.
The NC strips with transblotted hBMECs proteins were first incubated with rDIII at various concentrations to find out the minimal concentration of rDIII required to detect the interaction with hBMECs proteins. Non-specific binding sites were blocked with 1% BSA in 0.05% TBST (pH 7.2) for 1 h at room temperature and constant shaking followed by a washing step for 5 min with 0.05% TBST. The NC strips were incubated with rDIII at different concentrations (5 µg, 2.5 µg, 2 µg, 1 µg, 500 ng) diluted in 1 mL of 0.05% TBST for 3 h at room temperature and constant shaking. After 3 washings with 0.05% TBST, strips were incubated with HisProbe-HRP conjugate (1:5,000 dilution in 0.1% BSA in 0.05% TBST; Thermo Fisher Scientific) for 30 min at room temperature. Six washings, each of 5 min were performed before incubating the strips in SuperSignal chemiluminescence substrate (Thermo Fisher Scientific). The signal was captured on the C-DiGit Blot Scanner (Odyssey CLx, LI-COR Biosciences). For negative control, rDIII was excluded from the above-mentioned protocol.
To block the interaction, the NC strips were blocked as described above.
Simultaneously, 2.5 µg (0.19 nM) of rDIII were pre-incubated with 2.75 µg of each peptide (10-fold molar excess; 1.9 nM) in TBS for 1 h at room temperature. Further on, strips were incubated with pre-incubated rDIII for 3 h at room temperature with constant shaking. After 3 washings with 0.05% TBST, strips were incubated with HisProbe-HRP conjugate as described above. […]

[2] = system: WNV virus like particles (VLP) that possess C, M, and E proteins; details: for luciferase luminescence, original data (single wells, duplicates): Avg.VC 555022 / Avg.CC 1551.33 (plate 1), 522383 / 1614.33 (plate 2)

SMILES: CC[C@H](C)[C@@H]1NC(=O)[C@@H](NC(=O)[C@H](C)N)CSSC[C@@H](C(=O)NCC(=O)NCC(=O)NCC(=O)N[C@@H](CO)C(=O)O)NC(=O)[C@H](C)NC(=O)[C@H](CCCNC(=N)N)NC(=O)[C@H]([C@@H](C)O)NC(=O)[C@H](CO)NC(=O)[C@H](CO)NC(=O)[C@H](Cc2c[nH]cn2)NC1=O [CP4, CIHSSTRAC]
- inhibition of the interaction between rDIII and ~ 15 kDa hBMECs receptor (Western blot) [1]: inhibition of the interaction was confirmed
- EC50 ([2]; 48 h): 17 nM
- EC50 (neutralization of VLP) as concentration ([2]; 48 h): 0.1194 µg/mL
- luciferase luminescence, original data (single wells, duplicates) ([2]; dilution 90): 125654 and 100462
- Avg. inhibition of VLP infection ([2]; dilution of peptide 30, 666 nanograms of peptide / well): 95%
- Avg. inhibition of VLP infection ([2]; dilution of peptide 90, 222 nanograms of peptide / well): 80%
- Avg. inhibition of VLP infection ([2]; dilution of peptide 270, 74 nanograms of peptide / well): 74%
- Avg. inhibition of VLP infection ([2]; dilution of peptide 810, 24.7 nanograms of peptide / well): 57%
- Avg. inhibition of VLP infection ([2]; dilution of peptide 2430, 8.2 nanograms of peptide / well): 33%
- Avg. inhibition of VLP infection ([2]; dilution of peptide 7290, 2.7 nanograms of peptide / well): 20%
- luciferase luminescence, original data (single wells, duplicates) ([2]; listed as B, dilution 30): 31234 and 31350
- luciferase luminescence, original data (single wells, duplicates) ([2]; listed as D, dilution 270): 151785 and 142766
- luciferase luminescence, original data (single wells, duplicates) ([2]; listed as E, dilution 810): 243092 and 236564
- luciferase luminescence, original data (single wells, duplicates) ([2]; listed as F, dilution 2430): 368265 and 376779
- luciferase luminescence, original data (single wells, duplicates) ([2]; listed as G, dilution 7290): 424174 and 466082
- half maximal effective concentration in nanograms/ml ([2]; sigmoidal 4PL interpolation from EC50 dilution): 119.48 nanograms/ml
- half maximal effective concentration in nanograms/well (150 ul) ([2]; well volume 150 ul, sigmoidal 4PL interpolation from EC50 dilution): 17.94 nanograms/well
